Measured values reported in patent US11464810B2, “Ascaroside treatment of eosinophilic esophagitis” (California Institute of Technology, priority 2016, dated 2022).

How the values were obtained:
[1] = system: IL-6; assay: IL-6 secretion by bone marrow-derived dendritic cells, ELISA; type: cell-based, mouse; settings: different concentrations of ascr#7
Protocol: (§1) Bone marrow was extracted from femurs of C57BL/6 mice (6-12 weeks of age). These mice were euthanized by CO2 inhalation and their femurs were removed. After removing the remaining flesh from the bone, they were cut at the metaphysis. Bone marrow was flushed out using a syringe filled with RPMI. The extracted marrow was further broken down by resuspension with syringe. The mixture was centrifuged and the pellet was re-suspended in RPMI. […] 20 ng of GM-CSF was added to each well. At day 3, and every 3 days thereafter, the media was replaced. Cells were used for experiments between day 7-9.
(§2) Bone marrow dendritic cells were collected between day 7-9 of culture. Cells were washed twice and counted. Ascr#7 in water or RPMI were placed in corresponding wells, and are allowed to dry. 10^6 cells were then plated in each well in a 24 well culture plate. Cells were left to incubate with ascr#7 for 5 minutes. Following the brief incubation, different TNFα was added to the wells. These bone marrow dendritic cells were then cultured at 37° C. for 18-72 hours. Cells were collected via the pellet generated by centrifuge. The supernatant was also preserved. EBioscience ELISA kits was used to determine the concentration of different cytokines present in each well.

[2] = system: IL-1β; assay: IL-1β secretion by bone marrow-derived dendritic cells, ELISA; type: cell-based, mouse; settings: different concentrations of ascr#7
Protocol: as §1, §2

[3] = system: ovalbumin model of murine asthma; assay: ovalbumin model of murine asthma; type: in vivo, mouse; settings: C57BL/6 mice
Protocol: Adult C57BL/6 mice were sensitized by administering 2 ug OVA (Sigma-Aldrich) and 1 mg alum (Thermo) with 50ng ascr#7 or saline, via intraperitoneal injection, on Day 0 and 14. On day 24, the mice were challenged with intranasal administration of saline containing 100 μg OVA, under isoflurane anesthesia. Histologic sections were stained with H&E or PAS to score for eosinophilia, goblet cell metaplasia, and airway hyper-reactivity. Mice were also placed in a computer controlled small animal ventilator (SCIREQ) to score for airway hyper-reactivity following methacholine challenge. […] Animals with asthma have higher resistance of flow, which would be represented as higher “RL” values in FIG. 3B-FIG. 3F. […] Lungs were collected, postmortem, and then sectioned and stained to show the presence of eosinophils and mucus. […] In FIG. 3G, the asthmatic mouse lung, here labeled “Asthma” has a large number of mucus and eosinophils that surround the bronchioles and occupy the alveolar space; wherein the thick barriers would prohibit oxygen from easily diffusing.

[4] = system: T cell transfer model of colitis; assay: T cell transfer model of colitis (immune dysregulation model of inflammatory bowel disease); type: in vivo, mouse; settings: Rag −/− mice, 300 ng ascr#7 intraperitoneal every 3 days between day 14 and day 28
Protocol: A T cell transfer model of colitis where 10^6 CD4+ T cells were transferred to adult Rag −/− mice was used, and either saline or 300 ng ascr#7 were administered via intraperitoneal injection every 3 days between day 14 and day 28. On day 28, the mice were euthanized and colon analysis was performed. n=3 mice per group. […] The normal mouse colon is long, skinny, and has discrete fecal pellets. The diseased mouse colon, with IBD, has a shortened, dilated colon, with diarrhea instead of discrete fecal pellets.

[5] = 50ng ascr#7 intraperitoneal on Day 0 and 14, H&E or PAS sections

C[C@H](CC/C=C/C(=O)O)O[C@@H]1O[C@@H](C)[C@H](O)C[C@H]1O [ascr#7] was tested, and the IL-6 levels ([1]; dendritic cells not stimulated with TNF-α, FIG. 1 left side) was “very low levels of IL-6”, the “secreted IL-6 levels” value ([1]; dendritic cells stimulated with TNF-α, FIG. 1 right side) was “reduces these levels significantly” and the IL-1β levels ([2]; dendritic cells not stimulated with TNF-α, FIG. 2 left side) was “very low levels of IL-1β”. For the same molecule, the “secreted IL-1β levels” value ([2]; dendritic cells stimulated with TNF-α, FIG. 2 right side) was “reduces these levels significantly”, the development of eosinophilia [3, 5] was “reduces the development of” and the “development of goblet cell metaplasia” value [3, 5] was “reduces the development of”. The “lung histology (eosinophils and mucus; boundaries between bronchioles and alveolar space)” value ([3]; 50ng ascr#7 intraperitoneal on Day 0 and 14, stained lung sections, FIG. 3G) was “thin boundaries between the bronchioles and the alveolar space, comparable to the normal mice”, the “resistance of air flow (RL), airway hyper-reactivity following methacholine challenge” value ([3]; 50ng ascr#7 intraperitoneal on Day 0 and 14 with OVA/alum, FIG. 3B-3F) was “low resistance of air flow, with comparable levels to normal mice” and the “development of abnormal lumen dilation” value [4] was “markedly reduces the development of”. For the same molecule, the “development of colon shortening” value [4] was “markedly reduces the development of”, the development of diarrhea [4] was “markedly reduces the development of” and the “colon appearance (length, dilation, fecal pellets)” value ([4]; colon analysis day 28, FIG. 4) was “normal appearing colon, which is long, skinny, and contains discrete fecal pellets”.
